Experimental findings from patent publication US12643882B2, “Inhibitors of human respiratory syncytial virus and metapneumovirus” (priority 2022, dated 2026) are described below.

Read-outs that look alike come from different tables or passages of the source. Where only a bound is given, the exact number is not on record here.

One assay relates to RSV-A2-GFP virus. Nature of the assay: microbe, parasite or virus in culture. It counts as cell-based, Human Respiratory Syncytial Virus. On the procedure: To set up the assay, ARF vials were thawed in a 37° C. water bath and a control compound was resuspended in assay media DMEM (Dulbecco's Modified Eagle Medium) containing 2% FBS, 100 U/ml Penicillin-Streptomycin.
GFP sequence was derived from pJTI™ R4 Dest CMV N-EmGFP pA Vector (Invitrogen) and was cloned into the intergenic sequence between wild-type RSV-A2 P and M genes using standard recombineering techniques. Recombinant RSV-A2-GFP was propagated in Hep2 cells (human cells contain HeLa marker chromosomes and were derived via HeLa contamination, ATCC CCL-23) with a Multiplicity of Infection (MOI) of 0.1. Virus was harvested 3 days after infection by collecting all culture material and then freeze-thawing the mixture for 5 min. Working virus stocks were generated by thawing frozen viral cultures in 37° C. water bath, which were centrifuged at 218 g for 15 min at 4° C. 1/10 of 10×SPG (Biological Industries 06-3061-01-5A) were added and then mixed. The supernatant was aliquoted, frozen in liquid nitrogen, and then transferred to a −80° C. freezer for storage. Virus titer was determined by automated plaque assay in HEp-2 cells following methods described previously (Wen Z. et al.; 2019).
Calu-1 cells were purchased from ATCC (Cat #HTB-54) and were expanded in growth media (DMEM containing 10% FBS, 100 U/ml Penicillin-Streptomycin). To make ARF, cell culture media was removed and discarded and the cell layer was briefly rinsed with PBS to remove serum. 2.5 mL of TrypLE Express solution were added and cells incubated until dislodged, to which growth media was added and the cells were resuspended by gentle pipetting. Cells were counted for concentration and viability as determined by ViCell. Cells were centrifuged at RT, 300 g for 5 minutes to pellet cells. The supernatant was gently aspirated and the pellet was flicked to loosen cells. Cells were resuspended in an appropriate volume of freezing medium (DMEM containing 10% DMSO, 10% FBS, 100 U/ml Penicillin-Streptomycin) to achieve a concentration of 5×10^6 cells/mL. 1 mL aliquots of the cell suspension were transferred to freezing vials. The vials were put into an upright container in a −80° C. freezer overnight before transferring vials to liquid nitrogen for storage.
Assay ready freezedown (ARF, generation described separately) Calu-1 cells (ATCC HTB-54) were used. Compound plates were prepared by dispensing compounds dissolved in DMSO into the wells of a 384 well Corning® 3985 plate with an ECHO acoustic dispenser and compounds were tested in 10-point serial 3-fold dilution. […] To set up the assay, ARF vial(s) were thawed in a 37° C. water bath and were then resuspended into assay media (DMEM containing 2% FBS, 100 U/ml Penicillin-Streptomycin). Cells were counted using default parameters on ViCell and diluted to 20,000 cells/mL in assay media. RSV-A2-GFP virus was added to cells at 24,000 pfu/ml (MOI=1.2) and mixed by gentle inversion. 10 μL/well of 100% DMSO was dispensed as CellTiter-Glo (CTG) assay Max_E controls wells. The cells were dispensed at 50 μL/well using Bravo with 50 μL filtered tips into compound plates. Plates were covered with MicroClime lids, loaded with 7.5 mL of assay media to minimize evaporation, and were incubated at 37° C. and 5% CO2 for 96 hrs. Following incubation, distinct, GFP-expressing cells were counted using an Acumen imaging system with appropriate settings. A same-well CTG assay was performed by adding 10 μL/well reconstituted CellTiter-Glo reagent (Promega G7573) and plates were read on PerkinElmer Envision according to manufacturer's instructions. Raw data were loaded and analyzed in ActivityBase. Antiviral IC50 and cytotoxicity CC50 values were determined using a 4 parameter logistic fit based on the Levenberg-Marquardt algorithm. Model: 205-4 Parameter Logistic.

For a further assay, the system named is hMPV-GFP virus. Nature of the assay: microbe, parasite or virus in culture. It counts as cell-based, human metapneumovirus. How it is done:
GFP expressing rgHMPV #3 p3 was generated in Dr. Buchholz's lab (Biacchesi S. et al., J Virol. 2007 June; 81(11): 6057-6067) and propagated in VERO cells (ATCC Cat #CCL-81) with a Multiplicity of Infection (MOI) of 0.1. Virus was harvested 4 days after infection by collecting cultured material and was freeze-thaw cycled in liquid nitrogen twice. Working virus stocks were generated from thawing frozen samples in 37° C. water bath, which were centrifuged at 218 g for 15 min at 4° C. 1/10 of 10×SPG (Biological Industries 06-3061-01-5A) were added and then mixed. The supernatant was aliquoted, frozen in liquid nitrogen, and then transferred to a −80° C. freezer for storage. Virus titer was determined by performing titration test in 96-well plates and calculate approximate virus titer using GFP event/well data.
Compound plates were prepared by dispensing compounds dissolved in DMSO into wells of a 384 well Corning 3985 polystyrene flat clear bottom optical imaging microplate (202.5 nL/well) using an ECHO acoustic dispenser. Each compound was tested in 10-point serial 3-fold dilution (typical final concentrations: 40,300 nM-2 nM). […] Continuous culture of VERO cells was maintained in complete culture media (OptiMEM supplemented with 2 mM GlutaMAX™ and 100 U/ml Penicillin-Streptomycin). To set up the assay, VERO cells were trypsinized with 0.25% Trypsin-EDTA until cells were dislodged, then cells were re-suspended with 1 mL FBS. Cells were spun down at 300 g for 5 minutes and cells were washed twice with culture media and counted using default parameters on ViCell. Cells were then diluted to 100,000 cells/mL (5,000 cells/50 μL) in complete culture media+TrypLE Select (80 μL/mL). hMPV-GFP virus was added to cells at 125,000 pfu/mL (MOI=1.25) and were mixed by gentle inversion. 10 μL/well of 100% DMSO was dispensed to CellTiter-Glo (CTG) assay Max_E controls wells. Cells were dispensed at 50 μL/well using Bravo and 50 μL filtered tips into compound plates. Plates were covered with MicroClime lids and loaded with 7.5 mL of assay media to minimize evaporation. Plates were lightly shaken for 10 minutes at room temperature and then incubated at 37° C. and 5% CO2 for 48 hrs. Following incubation, distinct GFP-expressing cells were counted using an Acumen imaging system with appropriate settings. A same-well CTG assay was performed by adding 10 μL/well reconstituted CellTiter-Glo reagent (Promega G7573) and plates were read on PerkinElmer Envision according to manufacturer's instructions. Raw data were loaded and analyzed in ActivityBase. Antiviral IC50 and cytotoxicity CC50 values were determined using a 4 parameter logistic fit based on the Levenberg-Marquardt algorithm. Model: 205-4 Parameter Logistic. • References: Wen Z, Citron M, Bett A J, Espeseth A S, Vora K A, Zhang L, DiStefano D J. Development and application of a higher throughput RSV plaque assay by immunofluorescent imaging. J Virol Methods. 2019 January; 263:88-95. doi: 10.1016/j.jviromet.2018.10.022. Epub 2018 Oct. 28. PMD: 30381239. • Biacchesi S, Murphy B R, Collins P L, Buchholz U J. Frequent frameshift and point mutations in the SH gene of human metapneumovirus passaged in vitro. J Virol. 2007 June; 81(11):6057-67. doi: 10.1128/JVL.00128-07. Epub 2007 Mar. 21. PMID: 17376897; PMCID: MC 1900297. Assay Data

[1] abbreviates: read-out: RSV EC50, Calu-1 cells infected with RSV-A2-GFP, 96 hrs, GFP-expressing cells counted.
Where [2] appears, read: read-out: hMPV EC50, VERO cells infected with hMPV-GFP, 48 hrs, GFP-expressing cells counted.
Setting [3] is: Calu-1 cells infected with RSV-A2-GFP, 96 hrs, GFP-expressing cells counted, read-out: RSV EC50.
Setting [4] is: VERO cells infected with hMPV-GFP, 48 hrs, GFP-expressing cells counted, read-out: hMPV EC50.
[5] abbreviates: human respiratory syncytial virus, Calu-1, 96 h, read-out: RSV EC50, Calu-1 cells infected with RSV-A2-GFP, 96 hrs, GFP-expressing cells counted.
Where [6] appears, read: human metapneumovirus, Vero, 48 h, read-out: hMPV EC50, VERO cells infected with hMPV-GFP, 48 hrs, GFP-expressing cells counted.

As usually defined, the EC50 is the midpoint of the concentration-response curve.

Turning to `Cc1nn(-c2ncccn2)cc1C(=O)N1C[C@H]2[C@H](Oc3cc(C(C)(C)N)cc(-c4ccc(F)cc4)n3)[C@@]2(C)C1` (single isomer, unassigned; enantiomer 2) [Example 107B], the EC50 in the assay with RSV-A2-GFP virus (setting [1]) is below 0.01 µM; with hMPV-GFP virus (setting [2]), above 0.1 µM.

As for `Cn1nc(-c2ncccn2)cc1C(=O)N1C[C@H]2[C@H](Oc3cc(C(C)(C)N)cc(-c4ccc(F)cc4F)n3)[C@@]2(C)C1` (single isomer, unassigned; enantiomer 2) [Example 108B], the EC50 in the assay with RSV-A2-GFP virus (setting [1]) is below 0.01 µM; in the assay with hMPV-GFP virus (setting [2]), above 0.1 µM.

Regarding `Cc1nn(-c2ncccn2)cc1C(=O)N1C[C@H]2[C@H](Oc3cc(C(C)(C)N)cc(-c4ccc(F)cc4F)n3)[C@@]2(C)C1` (single isomer, unassigned; enantiomer 2) [Example 109B], the EC50 with RSV-A2-GFP virus (setting [1]) was below 0.01 µM; with hMPV-GFP virus (setting [2]), 0.01 to 0.1 µM.

For the molecule `Cn1nc(-c2ncccn2)cc1C(=O)N1C[C@H]2[C@H](Oc3cc(C(C)(C)N)cc(-c4ccc(C(F)(F)F)cc4)n3)[C@@]2(C)C1` (single isomer, unassigned; enantiomer 2) [Example 110B], the 50% effective concentration (EC50) in the assay with RSV-A2-GFP virus (setting [1]) was below 0.01 µM; in the assay with hMPV-GFP virus (setting [2]), above 0.1 µM.

For `Cc1nn(-c2ncccn2)cc1C(=O)N1C[C@H]2[C@H](Oc3cc(C(C)(C)N)cc(-c4ccc(C(F)(F)F)cc4)n3)[C@@]2(C)C1` (single isomer, unassigned; enantiomer 2) [Example 111B], the EC50 in the assay on RSV-A2-GFP virus (setting [1]) is below 0.01 µM; in the assay with hMPV-GFP virus (setting [2]) it was 0.01 to 0.1 µM.

Turning to `Cc1nc(-c2ncccn2)sc1C(=O)N1C[C@@H]2C(Oc3cc(C(C)(N)CO)cc(-c4ccc(F)cc4)n3)[C@@H]2C1` (single isomer, unassigned; enantiomer 2) [Example 113B], the EC50 in the assay with RSV-A2-GFP virus (setting [3]) is below 0.01 µM; in the assay with hMPV-GFP virus (setting [4]), above 0.1 µM.

`CCC(C)(N)c1cc(OC2[C@H]3CN(C(=O)c4cn(-c5ncccn5)nc4C)C[C@@H]23)nc(-c2ccc(F)cc2)c1` (single isomer, unassigned; enantiomer 2) [Example 116B]: the EC50 with RSV-A2-GFP virus (setting [3]) was below 0.01 µM; in the assay on hMPV-GFP virus (setting [4]), above 0.1 µM.

With `Cc1nc(-c2ncccn2)sc1C(=O)N1C[C@@H]2[C@H](C1)[C@H]2Nc1cc(C(C)(C)N)cc(-c2ccc(F)cc2)n1` [Example 7, ((1R,5S,6s)-6-((4-(2-aminopropan-2-yl)-6-(4-fluorophenyl)pyridin-2-yl)amino)-3-azabicyclo[3.1.0]hexan-3-yl)(4-methyl-2-(pyrimidin-2-yl)thiazol-5-yl)methanone], the figures for the EC50 in the assay on RSV-A2-GFP virus (setting [5]) and in the assay on hMPV-GFP virus (setting [6]) were below 0.01 µM and above 0.1 µM, respectively.

As to `Cc1nc(-c2ncccn2)sc1C(=O)N1C[C@@H]2[C@H](C1)[C@H]2Oc1cc(C(C)(C)N)cc(-c2ccc(F)cc2)n1` [Example 8, ((1R,5S,6s)-6-((4-(2-aminopropan-2-yl)-6-(4-fluorophenyl)pyridin-2-yl)oxy)-3-azabicyclo[3.1.0]hexan-3-yl)(4-methyl-2-(pyrimidin-2-yl)thiazol-5-yl)methanone], the EC50 with RSV-A2-GFP virus (setting [5]) was below 0.01 µM; with hMPV-GFP virus (setting [6]), 0.01 to 0.1 µM.

Consider `CC(C)(N)c1cc(O[C@H]2[C@@H]3CN(C(=O)c4cnc(-c5ncccn5)s4)C[C@@H]32)nc(-c2ccc(F)cc2)c1` [Example 9, ((1R,5S,6s)-6-((4-(2-aminopropan-2-yl)-6-(4-fluorophenyl)pyridin-2-yl)oxy)-3-azabicyclo[3.1.0]hexan-3-yl)(2-(pyrimidin-2-yl)thiazol-5-yl)methanone], for which the EC50 with RSV-A2-GFP virus (setting [5]) was below 0.01 µM; in the assay with hMPV-GFP virus (setting [6]), above 0.1 µM.

For the molecule `CCc1nc(-c2ncccn2)sc1C(=O)N1C[C@@H]2[C@H](C1)[C@H]2Oc1cc(C(C)(C)N)cc(-c2ccc(F)cc2)n1` [Example 10, ((1R,5S,6s)-6-((4-(2-aminopropan-2-yl)-6-(4-fluorophenyl)pyridin-2-yl)oxy)-3-azabicyclo[3.1.0]hexan-3-yl)(4-ethyl-2-(pyrimidin-2-yl)thiazol-5-yl)methanone], the EC50 with RSV-A2-GFP virus (setting [3]) is below 0.01 µM; in the assay with hMPV-GFP virus (setting [4]), 0.01 to 0.1 µM.

Turning to `CC(C)(N)c1cc(O[C@H]2[C@@H]3CN(C(=O)c4sc(-c5ncccn5)nc4C(F)(F)F)C[C@@H]32)nc(-c2ccc(F)cc2)c1` [Example 11, ((1R,5S,6s)-6-((4-(2-aminopropan-2-yl)-6-(4-fluorophenyl)pyridin-2-yl)oxy)-3-azabicyclo[3.1.0]hexan-3-yl)(2-(pyrimidin-2-yl)-4-(trifluoromethyl)thiazol-5-yl)methanone], the values for the EC50 in the assay with RSV-A2-GFP virus (setting [3]) and in the assay with hMPV-GFP virus (setting [4]) were below 0.01 µM and above 0.1 µM, respectively.

Consider `Cc1nc(-c2ccccn2)sc1C(=O)N1C[C@@H]2[C@H](C1)[C@H]2Oc1cc(C(C)(C)N)cc(-c2ccc(F)cc2)n1` [Example 12, ((1R,5S,6s)-6-((4-(2-aminopropan-2-yl)-6-(4-fluorophenyl)pyridin-2-yl)oxy)-3-azabicyclo[3.1.0]hexan-3-yl)(4-methyl-2-(pyridin-2-yl)thiazol-5-yl)methanone], for which the EC50 was below 0.01 µM with RSV-A2-GFP virus (setting [3]) and above 0.1 µM with hMPV-GFP virus (setting [4]).
